Here are results for 29 molecules from patent publication US9951068B2 (Proximagen Limited, priority 2013, dated 2018).

Some results are limits rather than exact numbers.

For this assay, the target named is purified recombinantly expressed human SSAO (Homo sapiens (Human), UniProt Q16853). The assay can be described thus: SSAO enzyme inhibition assay (HRP-coupled hydrogen peroxide detection or 14C-benzaldehyde detection, benzylamine substrate). Format: biochemical. To be noted: SSAO inhibitory activity, human recombinant SSAO, RT. The method, then: All primary assays were performed at RT. with purified recombinantly expressed human SSAO. Enzyme was prepared essentially as described in Öhman et al. (Protein Expression and Purification 46 (2006) 321-331). In addition, secondary- and selectivity assays were performed using SSAO prepared from various tissues or purified rat recombinant SSAO. The enzyme activity was assayed with benzylamine as substrate by measuring either benzaldehyde production, using ^14C-labeled substrate, or by utilizing the production of hydrogen peroxide in a horseradish peroxidase (HRP) coupled reaction. Briefly, test compounds were dissolved in dimethyl sulfoxide (DMSO) to a concentration of 10 mM. Dose-response measurements were assayed by either creating 1:10 serial dilutions in DMSO to produce a 7 point curve or by making 1:3 serial dilutions in DMSO to produce 11 point curves.
purified recombinantly expressed human SSAO, sequence (Q16853 29-763): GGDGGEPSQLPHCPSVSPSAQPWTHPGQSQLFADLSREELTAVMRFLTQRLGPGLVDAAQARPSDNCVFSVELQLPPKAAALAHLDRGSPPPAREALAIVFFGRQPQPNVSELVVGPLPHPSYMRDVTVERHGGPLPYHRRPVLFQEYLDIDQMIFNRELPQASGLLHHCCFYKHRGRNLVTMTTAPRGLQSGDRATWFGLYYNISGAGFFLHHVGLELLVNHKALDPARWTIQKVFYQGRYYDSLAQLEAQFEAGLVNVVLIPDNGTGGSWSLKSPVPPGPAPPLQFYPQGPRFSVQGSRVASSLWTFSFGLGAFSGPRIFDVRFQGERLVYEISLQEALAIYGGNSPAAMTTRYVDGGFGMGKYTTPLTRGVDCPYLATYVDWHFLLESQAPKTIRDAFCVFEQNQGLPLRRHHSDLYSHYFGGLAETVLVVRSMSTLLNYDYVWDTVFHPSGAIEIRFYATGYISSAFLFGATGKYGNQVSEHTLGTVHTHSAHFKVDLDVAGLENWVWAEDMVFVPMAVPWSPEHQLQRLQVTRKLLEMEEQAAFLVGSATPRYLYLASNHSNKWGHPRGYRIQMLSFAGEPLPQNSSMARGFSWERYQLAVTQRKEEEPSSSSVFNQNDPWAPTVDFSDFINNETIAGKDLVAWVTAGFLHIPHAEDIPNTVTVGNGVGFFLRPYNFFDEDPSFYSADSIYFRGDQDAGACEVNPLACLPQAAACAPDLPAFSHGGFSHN
In a horseradish peroxidase (HRP) coupled reaction, hydrogen peroxide oxidation of 10-acetyl-3,7-dihydroxyphenoxazine produced resorufin, which is a highly fluorescent compound (Zhout and Panchuk-Voloshina. Analytical Biochemistry 253 (1997) 169-174; Amplex® Red Hydrogen Peroxide/peroxidase Assay kit, Invitrogen A22188). Enzyme and compounds in 50 mM sodium phosphate, pH 7.4 were set to pre-incubate in flat-bottomed microtiter plates for approximately 15 min before initiating the reaction by addition of a mixture of HRP, benzylamine and Amplex reagent. Benzylamine concentration was fixed at a concentration corresponding to the Michaelis constant, determined using standard procedures. Fluorescence intensity was then measured at several time points during 1-2 h, exciting at 544 nm and reading the emission at 590 nm. For the human SSAO assay final concentrations of the reagents in the assay wells were: SSAO enzyme 1 ug/ml, benzylamine 100 uM, Amplex reagent 20 uM, HRP 0.1 U/mL and varying concentrations of test compound. The inhibition was measured as % decrease of the signal compared to a control without inhibitor (only diluted DMSO). The background signal from a sample containing no SSAO enzyme was subtracted from all data points. Data was fitted to a four parameter logistic model and IC50 values were calculated using the GraphPad Prism 4 or XLfit 4 programs.
SSAO activity was assayed using 14C-labeled benzylamine and analysed by measuring radioactive benzaldehyde. In a white 96-well optiplate (Packard), 20 uL of diluted test compound was pre-incubated at room temperature with 20 uL SSAO enzyme for approximately 15 min with continuous agitation. All dilutions were made with PBS. The reaction was initiated by adding 20 uL of the benzylamine substrate solution containing [7-14C] Benzylamine hydrochloride (CFA589, GE Healthcare). The plate was incubated for 1 h as above after which the reaction was stopped by acidification (10 uL 1M aq HCl). Then 90 uL Micro Scint-E solution (Perkin-Elmer) was added to each well and the plate was continuously mixed for 15 min. Phase separation occurred instantly and activity was read in a Topcount scintillation counter (Perkin-Elmer). In the final reaction well, the human recombinant SSAO concentration was 10 ug/ml. In order to optimize sensitivity, the substrate concentration was decreased as compared to the HRP coupled assay in order to get a higher fraction of radioactive product. In the human SSAO assay, benzylamine concentration was 40 uM (0.2 uCi/mL). Data was analysed as above.
Regarding `Clc1ccc(-n2c(-c3ccc(CN4CCOCC4)cc3)nc3ccncc32)cc1` [Example 49, 4-({4-[3-(4-Chlorophenyl)-3H-imidazo[4,5-c]pyridin-2-yl]phenyl}methyl)morpholine], the 50% inhibitory concentration (IC50) was under 50 nM.
In the case of `Brc1ccc(-n2c(-c3cnc(N4CCOCC4)nc3)cc3ccncc32)cc1` [Example 133, 4-{5-[1-(4-Bromophenyl)-1H-pyrrolo[2,3-c]pyridin-2-yl]pyrimidin-2-yl}morpholine] it was under 50 nM; in that of `Cc1ccc(-n2c(-c3cnc(N4CCOCC4)nc3)nc3ccncc32)nc1` [Example 79, 4-{5-[3-(5-Methylpyridin-2-yl)-3H-imidazo[4,5-c]pyridin-2-yl]pyrimidin-2-yl}morpholine], under 50 nM.
As for `Cc1cc(N2CCOCC2)ncc1-c1nc2ccncc2n1-c1ccc(Cl)cc1F` [Example 22, 4-{5-[3-(4-Chloro-2-fluorophenyl)-3H-imidazo[4,5-c]pyridin-2-yl]-4-methylpyridin-2-yl}morpholine], the IC50 was under 50 nM.
In the case of `CCOCCNc1ncc(-c2nc3ccncc3n2-c2ccc(C)cc2)cn1` [Example 43, N-(2-Ethoxyethyl)-5-[3-(4-methylphenyl)-3H-imidazo[4,5-c]pyridin-2-yl]pyrimidin-2-amine] it was under 50 nM; in that of `CN(C)c1ncc(-c2nc3ccncc3n2-c2ccc(Cl)cc2F)cn1` [Example 84, 5-[3-(4-Chloro-2-fluorophenyl)-3H-imidazo[4,5-c]pyridin-2-yl]-N,N-dimethylpyrimidin-2-amine], under 50 nM; in that of `Cc1cc(F)ccc1-n1c(-c2cnc(N3CCOCC3)nc2)nc2ccncc21` [Example 55, 4-{5-[3-(4-Fluoro-2-methylphenyl)-3H-imidazo[4,5-c]pyridin-2-yl]pyrimidin-2-yl}morpholine], under 50 nM.
In the case of `Cc1cc(-n2cccn2)ncc1-c1nc2ccncc2n1-c1ccc(F)cc1` [Example 102, 5-[3-(4-Fluorophenyl)-3H-imidazo[4,5-c]pyridin-2-yl]-4-methyl-2-(1H-pyrazol-1-yl)pyridine] it was 50 to 200 nM; in that of `Clc1ccc(-n2c(-c3cncnc3)cc3ccncc32)cc1` [Example 123], under 50 nM.
In the case of `Fc1ccc(-n2c(-c3ccc(OC4CCOCC4)nc3)nc3ccncc32)cc1` [Example 113, 5-[3-(4-Fluorophenyl)-3H-imidazo[4,5-c]pyridin-2-yl]-2-(oxan-4-yloxy)pyridine] it was under 50 nM.
For the molecule `O=c1cc(-c2cc3ccncc3n2-c2ccc(Cl)cc2)ccn1C1CC1` [Example 138, 4-[1-(4-Chlorophenyl)-1H-pyrrolo[2,3-c]pyridin-2-yl]-1-cyclopropyl-1,2-dihydropyridin-2-one], the IC50 is under 50 nM.
In the case of `Clc1ccc(-n2c(-c3cnc(N4CCOCC4)nc3)cc3ccncc32)cc1` [Example 127, 4-{5-[1-(4-Chlorophenyl)-1H-pyrrolo[2,3-c]pyridin-2-yl]pyrimidin-2-yl}morpholine] it was under 50 nM.
In the case of `Cc1ccc(-n2c(-c3cnc(NCCOC(C)C)nc3)nc3ccncc32)cc1` [Example 39, 5-[3-(4-Methylphenyl)-3H-imidazo[4,5-c]pyridin-2-yl]-N-[2-(propan-2-yloxy)ethyl]pyrimidin-2-amine] it was under 50 nM.
In the case of `Fc1ccc(-n2c(-c3ccc(N4CCOCC4)nc3)nc3ccncc32)c(Cl)c1` [Example 61, 4-{5-[3-(2-Chloro-4-fluorophenyl)-3H-imidazo[4,5-c]pyridin-2-yl]pyridin-2-yl}morpholine] it was under 50 nM.
For `Cc1ccc(-n2c(-c3cnc(N4CCOCC4)cc3C)nc3ccncc32)cn1` [Example 107, 4-{4-Methyl-5-[3-(6-methylpyridin-3-yl)-3H-imidazo[4,5-c]pyridin-2-yl]pyridin-2-yl}morpholine], the IC50 is under 50 nM.
In the case of `Clc1ccc(-n2c(-c3cnc(NCC4CC4)nc3)cc3ccncc32)cc1` [Example 149, 5-[1-(4-Chlorophenyl)-1H-pyrrolo[2,3-c]pyridin-2-yl]-N-(cyclopropylmethyl)pyrimidin-2-amine] it was under 50 nM.
In the case of `Clc1ccc(-n2c(-c3ccc(N4CCOCC4)nc3)nc3ccncc32)cc1` [Example 47, 4-{5-[3-(4-Chlorophenyl)-3H-imidazo[4,5-c]pyridin-2-yl]pyridin-2-yl}morpholine] it was under 50 nM.
For `Cn1ccc(-c2cc3ccncc3n2-c2ccc(Cl)cc2)cc1=O` [Example 143, 4-[1-(4-Chlorophenyl)-1H-pyrrolo[2,3-c]pyridin-2-yl]-1-methyl-1,2-dihydropyridin-2-one], the IC50 was under 50 nM.
In the case of `Clc1ccc(-n2c(-c3cnc(NC4CCOCC4)nc3)cc3ccncc32)cc1` [Example 139, 5-[1-(4-Chlorophenyl)-1H-pyrrolo[2,3-c]pyridin-2-yl]-N-(oxan-4-yl)pyrimidin-2-amine] it was under 50 nM; in that of `Clc1ccc(-n2c(-c3cnccn3)cc3ccncc32)cc1` [Example 124, 2-[1-(4-Chlorophenyl)-1H-pyrrolo[2,3-c]pyridin-2-yl]pyrazine], under 50 nM.
In the case of `O=c1cc(N2CCOCC2)[nH]cc1-c1nc2ccncc2n1-c1ccc(F)cc1` [Example 99, 5-[3-(4-Fluorophenyl)-3H-imidazo[4,5-c]pyridin-2-yl]-2-(morpholin-4-yl)-1,4-dihydropyridin-4-one] it was under 50 nM.
Regarding `Cn1cc(-c2cc3ccncc3n2-c2ccc(Cl)cc2)cn1` [Example 135, 4-[1-(4-Chlorophenyl)-1H-pyrrolo[2,3-c]pyridin-2-yl]-1-methyl-1H-pyrazole], the IC50 was under 50 nM.
In the case of `Oc1ccc(-n2c(-c3ccc(N4CCOCC4)nc3)nc3ccncc32)cc1` [Example 65, 4-{2-[6-(Morpholin-4-yl)pyridin-3-yl]-3H-imidazo[4,5-c]pyridin-3-yl}phenol] it was under 50 nM; in that of `Cn1c(-c2cc3ccncc3n2-c2ccc(Cl)cc2)cccc1=O` [Example 145, 6-[1-(4-Chlorophenyl)-1H-pyrrolo[2,3-c]pyridin-2-yl]-1-methyl-1,2-dihydropyridin-2-one], under 50 nM.
In the case of `Fc1cc(Cl)ccc1-n1c(-c2cnc(N3CCCC3)nc2)nc2ccncc21` [Example 83, 5-[3-(4-Chloro-2-fluorophenyl)-3H-imidazo[4,5-c]pyridin-2-yl]-2-(pyrrolidin-1-yl)pyrimidine] it was under 50 nM; in that of `Clc1ccc(-n2c(-c3ccc(CN4CCOCC4)nc3)cc3ccncc32)cc1` [Example 140, 4-({5-[1-(4-Chlorophenyl)-1H-pyrrolo[2,3-c]pyridin-2-yl]pyridin-2-yl}methyl)morpholine], under 50 nM; in that of `Clc1ccc(-n2c(-c3ccccn3)cc3ccncc32)cc1` [Example 121, 2-[1-(4-Chlorophenyl)-1H-pyrrolo[2,3-c]pyridin-2-yl]pyridine], under 50 nM.
In the case of `Fc1ccc(-n2c(-c3ccc(N4CCOCC4)nc3)nc3ccncc32)c(F)c1` [Example 41, 4-{5-[3-(2,4-Difluorophenyl)-3H-imidazo[4,5-c]pyridin-2-yl]pyridin-2-yl}morpholine] it was under 50 nM; in that of `Fc1ccc(-n2c(-c3cnc(NCC4CC4)nc3)nc3ccncc32)cc1` [Example 9, N-(Cyclopropylmethyl)-5-[3-(4-fluorophenyl)-3H-imidazo[4,5-c]pyridin-2-yl]pyrimidin-2-amine], under 50 nM.
